Results: patent publication US10894787B2, “Modulators of the GPR119 receptor and the treatment of disorders related thereto” (Arena Pharmaceuticals, Inc., priority 2010, dated 2021)

Experiments:
male diabetic ZDF rats = assay: Oral glucose tolerance test (oGTT) in male diabetic ZDF rats; format: in vivo, rat; details: for Plasma Glucose Mean: N = 6; for % Inhibition of Glucose Excursion: AUC reduction relative to vehicle control, ZDF rats
Protocol: Male ZDF rats were fasted for 18 h and randomly grouped (n=6) to receive a GPR119 agonist, (Compound 1), at 0.3, 3, 10, or 30 mg/kg (mg compound per kg body weight). The compound was delivered orally via a gavage needle (p.o., volume 4 mL/kg) 60 min prior to glucose bolus (3 g/kg) (time=−60 min in FIG. 1), with a separate group receiving vehicle (20% hydroxypropyl-beta-cyclodextrin) as control. At time 0 min the glucose bolus was administered. Levels of blood glucose were assessed using a glucometer (One-Touch Ultra™ LifeScan) at time −60 minute (prior to compound administration), at 0 min (at time when glucose bolus was given), and at 30, 60, 90, and 120 min post glucose bolus. Glucose excursion (AUC (area under the curve) reduction) in compound treated animals relative to vehicle control is shown in FIG. 2 and Table 2.

male 129SVE mice = assay: Oral glucose tolerance test (oGTT) in male 129SVE mice; format: in vivo, mouse; details: for Plasma Glucose Mean: N = 6; for % Inhibition of Glucose Excursion: AUC reduction relative to vehicle control
Protocol: Male 129SVE mice (approximately 8-week old) were fasted for 18 h and randomly grouped (n=6) to receive a GPR119 agonist, (Compound 1), at 0.3, 3, or 30 mg/kg (mg/kg body weight). The compound was delivered orally via a gavage needle (p.o., volume 4 mL/kg) 30 min prior to glucose bolus (3 g/kg) (time=−30 min in FIG. 3), with a separate group receiving vehicle (20% hydroxypropyl-beta-cyclodextrin) as control. At time 0 min. the glucose bolus was administered. Levels of blood glucose were assessed using a glucometer (One-Touch Ultra™, LifeScan) at time −30 minute (prior to compound administration), at 0 min (at time when glucose bolus was given), and at 20, 40, 60, 120 min post glucose bolus. Glucose excursion (AUC (area under the curve) reduction) in compound treated animals relative to vehicle control is given in FIG. 4, and in Table 4.

incretin hormone GIP = assay: In vivo incretin hormone GIP release, Total GIP ELISA on plasma; set-up: species or system mouse; details: blood sample after 45 min, male 129SVE mice
Protocol: Male 129SVE mice (approximately 8-week old) were fasted for 18 h and randomly grouped (n=6) to receive a GPR119 agonist, (Compound 1), at an oral dose of 0.1, 0.3, 1, 3, 10, or 30 mpk (mg/kg body weight). Compounds were delivered orally via a gavage needle (p.o., volume 4 mL/kg), and after 45 min a blood sample was collected to determine plasma total GIP levels. A separate group received vehicle (PET: 80% PEG400, 10% ethanol, 10% Tween80) as control. Plasma GIP levels were determined using a Total GIP ELISA kit from Millipore.

[1] = 0.3 mg/kg p.o., 60 min post glucose bolus
[2] = 0.3 mg/kg p.o., 120 min post glucose bolus
[3] = 3.0 mg/kg p.o., 60 min post glucose bolus
[4] = 3.0 mg/kg p.o., 120 min post glucose bolus
[5] = 30.0 mg/kg p.o., 60 min post glucose bolus
[6] = 30.0 mg/kg p.o., 120 min post glucose bolus

SMILES: CN(C)C(=O)c1ccc(Nc2ncnc(N3CCC(c4nc(C(C)(C)F)no4)CC3)c2F)c(F)c1 [Compound 1, 3-fluoro-4-(5-fluoro-6-(4-(3-(2-fluoropropan-2-yl)-1,2,4-oxadiazol-5-yl)piperidin-1-yl)pyrimidin-4-ylamino)-N,N-dimethylbenzamide]
- Plasma Glucose Mean (male diabetic ZDF rats; 0.3 mg/kg p.o. 60 min prior to glucose bolus, time 0 min): 89.7 mg/dL
- Plasma Glucose Mean (male diabetic ZDF rats; 0.3 mg/kg p.o., 30 min post glucose bolus): 201.7 mg/dL
- Plasma Glucose Mean (male diabetic ZDF rats; [1]): 192.2 mg/dL
- Plasma Glucose Mean (male diabetic ZDF rats; 0.3 mg/kg p.o., 90 min post glucose bolus): 185.3 mg/dL
- Plasma Glucose Mean (male diabetic ZDF rats; [2]): 154.8 mg/dL
- % Inhibition of Glucose Excursion (male diabetic ZDF rats; 0.3 mg/kg p.o.): 6.5%
- Plasma Glucose Mean (male diabetic ZDF rats; 0.3 mg/kg p.o., time -60 min (prior to compound administration)): 106.3 mg/dL
- Plasma Glucose Mean (male diabetic ZDF rats; 3.0 mg/kg p.o. 60 min prior to glucose bolus, time 0 min): 82.7 mg/dL
- Plasma Glucose Mean (male diabetic ZDF rats; 3.0 mg/kg p.o., 30 min post glucose bolus): 184.5 mg/dL
- Plasma Glucose Mean (male diabetic ZDF rats; [3]): 144.2 mg/dL
- Plasma Glucose Mean (male diabetic ZDF rats; 3.0 mg/kg p.o., 90 min post glucose bolus): 151.2 mg/dL
- Plasma Glucose Mean (male diabetic ZDF rats; [4]): 146.2 mg/dL
- % Inhibition of Glucose Excursion (male diabetic ZDF rats; 3 mg/kg p.o.): 47.0%
- Plasma Glucose Mean (male diabetic ZDF rats; 3.0 mg/kg p.o., time -60 min (prior to compound administration)): 110.0 mg/dL
- Plasma Glucose Mean (male diabetic ZDF rats; 10.0 mg/kg p.o. 60 min prior to glucose bolus, time 0 min): 76.0 mg/dL
- Plasma Glucose Mean (male diabetic ZDF rats; 10.0 mg/kg p.o., 30 min post glucose bolus): 174.0 mg/dL
- Plasma Glucose Mean (male diabetic ZDF rats; 10.0 mg/kg p.o., 60 min post glucose bolus): 135.8 mg/dL
- Plasma Glucose Mean (male diabetic ZDF rats; 10.0 mg/kg p.o., 90 min post glucose bolus): 141.3 mg/dL
- Plasma Glucose Mean (male diabetic ZDF rats; 10.0 mg/kg p.o., 120 min post glucose bolus): 132.5 mg/dL
- % Inhibition of Glucose Excursion (male diabetic ZDF rats; 10 mg/kg p.o.): 60.1%
- Plasma Glucose Mean (male diabetic ZDF rats; 10.0 mg/kg p.o., time -60 min (prior to compound administration)): 108.7 mg/dL
- Plasma Glucose Mean (male diabetic ZDF rats; 30.0 mg/kg p.o. 60 min prior to glucose bolus, time 0 min): 93.0 mg/dL
- Plasma Glucose Mean (male diabetic ZDF rats; 30.0 mg/kg p.o., 30 min post glucose bolus): 197.0 mg/dL
- Plasma Glucose Mean (male diabetic ZDF rats; [5]): 124.8 mg/dL
- Plasma Glucose Mean (male diabetic ZDF rats; 30.0 mg/kg p.o., 90 min post glucose bolus): 135.8 mg/dL
- Plasma Glucose Mean (male diabetic ZDF rats; [6]): 130.2 mg/dL
- % Inhibition of Glucose Excursion (male diabetic ZDF rats; 30 mg/kg p.o.): 52.1%
- Plasma Glucose Mean (male diabetic ZDF rats; 30.0 mg/kg p.o., time -60 min (prior to compound administration)): 104.8 mg/dL
- Effect on blood glucose after a challenge with glucose (male diabetic ZDF rats; diabetic ZDF rats, 0.3-30 mg/kg p.o.): lowered blood glucose
- Plasma Glucose Mean (male 129SVE mice; 0.3 mg/kg p.o. 30 min prior to glucose bolus, time 0 min): 74.2 mg/dL
- Plasma Glucose Mean (male 129SVE mice; 0.3 mg/kg p.o., 20 min post glucose bolus): 221.3 mg/dL
- Plasma Glucose Mean (male 129SVE mice; 0.3 mg/kg p.o., 40 min post glucose bolus): 274.8 mg/dL
- Plasma Glucose Mean (male 129SVE mice; [1]): 258.2 mg/dL
- Plasma Glucose Mean (male 129SVE mice; [2]): 154.5 mg/dL
- % Inhibition of Glucose Excursion (male 129SVE mice; 0.3 mg/kg p.o., 129SVE mice): 16.9%
- Plasma Glucose Mean (male 129SVE mice; 0.3 mg/kg p.o., time -30 min (prior to compound administration)): 58.5 mg/dL
- Plasma Glucose Mean (male 129SVE mice; 3.0 mg/kg p.o. 30 min prior to glucose bolus, time 0 min): 75.2 mg/dL
- Plasma Glucose Mean (male 129SVE mice; 3.0 mg/kg p.o., 20 min post glucose bolus): 206.7 mg/dL
- Plasma Glucose Mean (male 129SVE mice; 3.0 mg/kg p.o., 40 min post glucose bolus): 233.0 mg/dL
- Plasma Glucose Mean (male 129SVE mice; [3]): 213.5 mg/dL
- Plasma Glucose Mean (male 129SVE mice; [4]): 138.2 mg/dL
- % Inhibition of Glucose Excursion (male 129SVE mice; 3 mg/kg p.o., 129SVE mice): 34.8%
- Plasma Glucose Mean (male 129SVE mice; 3.0 mg/kg p.o., time -30 min (prior to compound administration)): 63.5 mg/dL
- Plasma Glucose Mean (male 129SVE mice; 30.0 mg/kg p.o. 30 min prior to glucose bolus, time 0 min): 78.7 mg/dL
- Plasma Glucose Mean (male 129SVE mice; 30.0 mg/kg p.o., 20 min post glucose bolus): 185.8 mg/dL
- Plasma Glucose Mean (male 129SVE mice; 30.0 mg/kg p.o., 40 min post glucose bolus): 216.0 mg/dL
- Plasma Glucose Mean (male 129SVE mice; [5]): 191.7 mg/dL
- Plasma Glucose Mean (male 129SVE mice; [6]): 138.7 mg/dL
- % Inhibition of Glucose Excursion (male 129SVE mice; 30 mg/kg p.o., 129SVE mice): 42.1%
- Plasma Glucose Mean (male 129SVE mice; 30.0 mg/kg p.o., time -30 min (prior to compound administration)): 64.5 mg/dL
- Effect on blood glucose after a challenge with glucose (male 129SVE mice; 129SVE mice, 0.3-30 mg/kg p.o.): lowered blood glucose
- Total Plasma GIP in Mice, Total GIP (incretin hormone GIP; 0.1 mg/kg p.o.): 60.92 pg/mL
- Total Plasma GIP in Mice, Total GIP (incretin hormone GIP; 0.3 mg/kg p.o.): 68.21 pg/mL
- Total Plasma GIP in Mice, Total GIP (incretin hormone GIP; 1 mg/kg p.o.): 183.8 pg/mL
- Total Plasma GIP in Mice, Total GIP (incretin hormone GIP; 3 mg/kg p.o.): 318.5 pg/mL
- Total Plasma GIP in Mice, Total GIP (incretin hormone GIP; 10 mg/kg p.o.): 444.8 pg/mL
- Total Plasma GIP in Mice, Total GIP (incretin hormone GIP; 30 mg/kg p.o.): 695.0 pg/mL
